Counter-ions that a name gives are not always drawn.
What follows are molecules tested against T1, human CCR4 (Homo sapiens, UniProt P51679) (assay: [35S]GTPγS binding test via CCR4 (human MDC-stimulated, human CCR4 expressing cell line membrane fraction)). Details: membrane fraction of human CCR4 expressing B300-16 cells, room temperature 1 hour 30 minutes, read-out: inhibitory activity value (IC50).
T1 construct: expressed in transfected cells; membrane fraction used
T1 sequence (P51679 1-360): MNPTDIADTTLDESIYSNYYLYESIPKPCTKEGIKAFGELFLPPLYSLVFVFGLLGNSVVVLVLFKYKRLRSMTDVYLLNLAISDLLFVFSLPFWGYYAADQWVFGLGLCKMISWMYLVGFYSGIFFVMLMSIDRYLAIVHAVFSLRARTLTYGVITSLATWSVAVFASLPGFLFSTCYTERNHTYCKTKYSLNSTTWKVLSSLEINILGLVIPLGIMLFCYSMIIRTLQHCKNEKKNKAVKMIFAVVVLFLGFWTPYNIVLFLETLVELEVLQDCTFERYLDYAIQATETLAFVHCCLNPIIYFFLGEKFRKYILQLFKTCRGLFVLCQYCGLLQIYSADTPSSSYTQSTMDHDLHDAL
Assay type: biochemical
Procedure: Action for [^35S]GTPγS Binding Test Via CCR4 (1) Preparation of Human CCR4 Expressing Cell Line A vector (contains a neomycin-resistance gene) in which human CCR4 gene was inserted into downstream of the EF-1α promoter was prepared and transfected into a mouse pre B cell line B300-16 cells by electroporation. These cells were cultured using a G-418-supplemented medium, and a single cell line capable of producing human CCR4 constantly and stably was obtained by the limiting dilution method. (2) Preparation of Human CCR4 Expressing Cell Line Membrane Fraction The human CCR4 expressing cells were recovered, washed with PBS and then suspended in a lysis buffer (10 mM HEPES pH 7.5, 2 mM EDTA, proteinase inhibitor). After allowing the suspension to stand on ice for 15 minutes, the cells were disintegrated using a homogenizer and centrifuged (2000 rpm, 10 min, 4° C.). The supernatant was further subjected to ultracentrifugation (22 K, 30 min, 4° C.), and then the pellet was suspended in PBS and used in the subsequent test. (3) GTPγS Binding Test In a reaction mixture liquid containing 20 mM of HEPES pH 7.05, 100 mM of NaCl, 5 mM of MgCl2, 2 μM of GDP, human MDC, […] of [^35S]GTPγS, 1 mg of wheat germ agglutinin SPA beads and 1 μg of the human CCR4 expressing cell line membrane fraction, respective concentration of the test compound was allowed to undergo the reaction at room temperature for 1 hour and 30 minutes, and the radioactivity was measured.

**Q.** `COc1cc2nc(N3CCC(N(C)C(=O)[C@@H]4CCCN4C)CC3)nc(Nc3ccc(Cl)cc3F)c2cc1OC` [Example 1, N-(1-{4-[(4-chloro-2-fluorophenyl)amino]-6,7-dimethoxyquinazolin-2-yl}piperidin-4-yl)-N,1-dimethyl-L-prolinamide dihydrochloride] was tested. Which IC50 did it give?
**A.** ≤ 100 nM

**Q.** `CCN(C(=O)[C@H]1CCCN1)C1CCN(c2nc(Nc3ccc(Cl)cc3)c3cc(F)ccc3n2)CC1` [Example 40] was tested. Which IC50 did it give?
**A.** ≤ 100 nM

**Q.** With `CN(C(=O)[C@@H]1CCCN1C)C1CCN(c2nc(Nc3ccc(Cl)cc3F)c3cc(Br)ccc3n2)CC1` [Example 7] as the molecule, how does the IC50 read?
**A.** ≤ 100 nM

**Q.** Which IC50 does the source give for `CN(C(=O)[C@@H]1CCCN1C)C1CCN(c2nc(Nc3ccc(Cl)cc3)c3cc(Br)ccc3n2)CC1` [Example 46] here?
**A.** ≤ 100 nM

**Q.** For `CCN(C(=O)[C@@H]1CCCN1)C1CCN(c2nc(Nc3ccc(Cl)cc3F)c3cc(F)ccc3n2)CC1` [Example 48], which IC50 is on record?
**A.** ≤ 100 nM

**Q.** With `CN(C(=O)[C@H]1CCCN1C)C1CCN(c2nc(Nc3ccc(Cl)cc3F)c3cc(Br)ccc3n2)CC1` [Example 22] as the molecule, how does the IC50 read?
**A.** ≤ 100 nM

**Q.** How did the IC50 turn out when `COc1cc2nc(N3CCC(N(C)C(=O)[C@H]4CCCN4)CC3)nc(Nc3ncc(Cl)cc3Cl)c2cc1F` [Example 75] was run?
**A.** ≤ 100 nM

**Q.** For `CCN(C(=O)[C@H]1CCCN1)C1CCN(c2nc(Nc3ccc(Cl)cc3F)c3cc(OC)c(OC)cc3n2)CC1` [Example 12], which IC50 is on record?
**A.** ≤ 100 nM

**Q.** How did the IC50 turn out when `CCN(C(=O)[C@H]1CCCN1C)C1CCN(c2nc(Nc3ccc(Cl)cc3F)c3cc(Br)ccc3n2)CC1` [Example 58] was run?
**A.** ≤ 100 nM

**Q.** How did the IC50 turn out when `CCn1ncc2c(NCc3ccc(Cl)cc3F)nc(N3CCC(N(C)C(=O)[C@H]4CCCN4)CC3)nc21` [Example 105] was run?
**A.** ≤ 100 nM

**Q.** How did the IC50 turn out when `CN(C(=O)[C@@H]1CCCN1)C1CCN(c2nc(Nc3ccc(Cl)cc3)c3cc(Br)ccc3n2)CC1` [Example 43] was run?
**A.** ≤ 100 nM

**Q.** How did the IC50 turn out when `CN(C(=O)[C@H]1CCCN1)C1CCN(c2nc(Nc3ccc(Cl)cc3F)c3cc(Br)ccc3n2)CC1` [Example 27] was run?
**A.** ≤ 100 nM

**Q.** How did the IC50 turn out when `COc1cc2nc(N3CCC(N(C)C(=O)[C@H]4CCCN4)CC3)nc(NCc3ccc(Cl)cc3F)c2cc1F` [Example 79] was run?
**A.** ≤ 100 nM

**Q.** Which IC50 does the source give for `COc1cc2nc(N3CCC(N(C)C(=O)[C@H]4CCCN4C)CC3)nc(Nc3ccc(Cl)cc3F)c2cc1OC` [Example 19] here?
**A.** ≤ 100 nM

**Q.** `CCN(C(=O)[C@@H]1CCCN1)C1CCN(c2nc(Nc3ccc(Cl)cc3F)c3cc(F)c(OC)cc3n2)CC1` [Example 63] was tested. Which IC50 did it give?
**A.** ≤ 100 nM

**Q.** Which IC50 does the source give for `CCn1ncc2c(Nc3ccc(Cl)cc3F)nc(N3CCC(N(C)C(=O)[C@H]4CCCN4C)CC3)nc21` [Example 100] here?
**A.** ≤ 100 nM

**Q.** How did the IC50 turn out when `COc1cc2c(Nc3ccc(Cl)cc3F)nc(N3CCC(N(C)C(=O)[C@@H]4CCCN4C)CC3)nc2cc1F` [Example 36] was run?
**A.** ≤ 100 nM

**Q.** For `CCN(C(=O)[C@H]1CCCN1C)C1CCN(c2nc(Nc3ccc(Cl)cc3F)c3cc(F)ccc3n2)CC1` [Example 50], which IC50 is on record?
**A.** ≤ 100 nM

**Q.** Which IC50 does the source give for `CN(C(=O)[C@H]1CCCN1)C1CCN(c2nc(NCc3ccc(Cl)cc3F)c3cnn(CC(F)(F)F)c3n2)CC1` [Example 106] here?
**A.** ≤ 100 nM

**Q.** How did the IC50 turn out when `CN(C(=O)[C@@H]1CCCN1)C1CCN(c2nc(Nc3ccc(Cl)cc3F)c3cc(Br)ccc3n2)CC1` [Example 54] was run?
**A.** ≤ 100 nM

**Q.** Which IC50 does the source give for `COc1cc2nc(N3CCC(N(C)C(=O)[C@H]4CCCN4)CC3)nc(Nc3ccc(Cl)cc3F)c2cc1OC` [Example 10] here?
**A.** ≤ 100 nM

**Q.** With `COc1cc2nc(N3CCC(N(C(=O)[C@H]4CCCN4C)C4CC4)CC3)nc(Nc3ccc(Cl)cc3F)c2cc1OC` [Example 21] as the molecule, how does the IC50 read?
**A.** ≤ 100 nM

What follows are molecules tested on Balb/c mice, oxazolone-induced contact dermatitis (assay: Mouse oxazolone-induced contact dermatitis (ear swelling)). Details: 30 mg/kg oral administration, swelling 20 hours after oxazolone application.
Assay type: in vivo
Procedure: 2. Action Upon Mouse Oxazolone-Induced Contact Dermatitis
Balb/c mice (6 to 10 weeks of age, female, Charles River Japan) were sensitized by applying 150 μl of 3% oxazolone/ethanol solution (Sigma Aldrich Japan) to the abdominal part. On the 6th day after the sensitization, 10 μl of 1% oxazolone/ethanol solution was applied to both sides of the right ear. The test drug was administered in 12 hours after the application of the oxazolone solution (test drug administration group), and the solvent alone used in dissolving the test drug was administered to the control group. Thickness of the right auricle was measured before the application and 20 hours thereafter using a […] (Mitsutoyo), and the swelling (thickness increment=measured value after 20 hours−measured value before application) was calculated. The inhibition ratio was calculated by the following formula, by regarding a group to which the oxazolone solution was applied without sensitization as the normal group. In this connection, the above-mentioned test was carried out by 5 animals per group. Inhibition ratio=(swelling of control group−swelling of test drug administration group)×100/(swelling of control group−swelling of normal group)

**Q.** `COc1cc2nc(N3CCC(N(C)C(=O)[C@@H]4CCCN4C)CC3)nc(Nc3ccc(Cl)cc3F)c2cc1OC` [Example 1, N-(1-{4-[(4-chloro-2-fluorophenyl)amino]-6,7-dimethoxyquinazolin-2-yl}piperidin-4-yl)-N,1-dimethyl-L-prolinamide dihydrochloride] was tested. Which “inhibitory activity (inhibition of right auricle swelling)” value did it give?
**A.** good inhibitory activity

— patent publication US7790884B2, “Acylaminopiperidine compound” (Astellas Pharma Inc., priority 2006, dated 2010)
